Patent publication US10882867B2, “Forms and compositions of a MK2 inhibitor” (Celgene CAR LLC, priority 2017, dated 2021)
Converted amounts (≈) assume the structure as drawn.

Experiments:
Assay type in all cases: physicochemical
[1] = Approximate solubility of Compound 1 Form A at room temperature; conditions: for solubility at 1 day: thermodynamic from solid
Excerpt: Solubility of Form A was approximated in the following solvents: acetonitrile (ACN), ACN/water (1:1), n-butanol (n-BuOH), absolute ethanol (EtOH), ethanol/water (1:1), methanol (MeOH), 2-propanol (IPA), ethyl acetate (EtOAc), methyl acetate (MeOAc), dichloromethane (DCM), methyl ethyl ketone (MEK), methyl t-butyl ether (MTBE), heptane, toluene, methyl acetate (MeOAc), isopropyl acetate (IPAc), methyl isobutyl ketone (MIBK), 2-methyltetrahydrofuran (2-MeTHF), 1,4-dioxane, tetrahydrofuran (THF), THF/water (1:1), water, dimethyl sufoxide (DMSO), dimethylacetamide (DMA, DMAc), and N-methylpyrrolidone (NMP). A weighed sample of Form A (about 50 mg) was treated with a known volume of a test solvent. The resulting mixture was agitated for 1 day at room temperature. If all of the solids appeared to be dissolved by visual inspection, the estimated solubility was calculated based on the total volume of solvent used to give a complete solution. If solids were present, a known volume of filtrate was evaporated to dryness and the weight of the residue was measured to estimate the solubility.

[2] = Dynamic vapor sorption (DVS) hygroscopicity; conditions: for DVS water uptake: between 0 and 90% RH, room temperature
Experimental: Hygroscopicity was determined on a Surface Measurement Systems DVS. A sample size of 5-20 mg was loaded into the DVS instrument sample pan and the sample was analyzed on a DVS automated sorption analyzer at room temperature. The relative humidity was increased from 0% to 90% RH at 10% RH step, then decreased in a similar manner to accomplish a full adsorption/desorption cycle. FIGS. 29-33 depict the DVS isotherm plots of Forms A, C, D, E, and I.

[3] = Form conversion (form transfer) experiments: slurry, compression, heating, humidity cycle
Experimental: Form conversion experiments were performed to determine interconversion among solid forms.
The stability of Form A was further characterized by compression test and form transfer experiments (Table 6). Upon application of 2000-psi pressure for about 1 minute, the material was still Form A, with broader diffraction peaks (FIG. 42(c)).

For `CCOCc1cnc(Cl)nc1Oc1ccc2c(ccc3sc4c(c32)NC[C@@H](C)NC4=O)n1` [Form A, (R)-3-((2-chloro-5-(ethoxymethyl)pyrimidin-4-yl)oxy)-10-methyl-9,10,11,12-tetrahydro-8H-[1,4]diazepino[5′,6′:4,5]thieno[3,2-f]quinolin-8-one], the solubility at 1 day ([1]; 2-MeTHF (2-methyltetrahydrofuran), organic solvent or mixture, 2-MeTHF, 1 day) was under 2000 µg/mL, the solubility at 1 day ([1]; ACN (acetonitrile), organic solvent or mixture, ACN, 1 day) was under 2000 µg/mL and the solubility at 1 day ([1]; ACN/water (1:1), aqueous with cosolvent or surfactant or cyclodextrin, ACN/water (1:1), 1 day) was under 1000 µg/mL. For the same molecule, the solubility at 1 day ([1]; DCM (dichloromethane), organic solvent or mixture, DCM, 1 day) was 8000 to 16000 µg/mL (≈ 17 to 34 mM), the “Approximate Solubility” value ([1]; DCM, 1 day) was under 9000 µg/mL and the solubility at 1 day ([1]; DMA (dimethylacetamide), organic solvent or mixture, DMA, 1 day) was over 50000 µg/mL. For the same molecule, the “Approximate Solubility” value ([1]; DMA, 1 day) was over 50000 µg/mL, the “Approximate Solubility” value ([1]; DMSO, 1 day) was over 50000 µg/mL and the solubility at 1 day ([1]; DMSO, organic solvent or mixture, 1 day) was over 50000 µg/mL. The solubility at 1 day ([1]; EtOAc (ethyl acetate), organic solvent or mixture, EtOAc, 1 day) was under 1000 µg/mL, the solubility at 1 day ([1]; EtOH (absolute ethanol), organic solvent or mixture, EtOH, 1 day) was under 2000 µg/mL and the solubility at 1 day ([1]; EtOH/water (1:1), aqueous with cosolvent or surfactant or cyclodextrin, EtOH/water (1:1), 1 day) was under 1000 µg/mL. The solubility at 1 day ([1]; IPA (2-propanol), organic solvent or mixture, IPA, 1 day) was under 1000 µg/mL, the solubility at 1 day ([1]; IPAc (isopropyl acetate), organic solvent or mixture, IPAc, 1 day) was under 1000 µg/mL and the solubility at 1 day ([1]; MEK (methyl ethyl ketone), organic solvent or mixture, MEK, 1 day) was over 2000 µg/mL. For the same molecule, the “Approximate Solubility” value ([1]; MEK, 1 day) was under 3000 µg/mL, the solubility at 1 day ([1]; MIBK (methyl isobutyl ketone), organic solvent or mixture, MIBK, 1 day) was under 1000 µg/mL and the solubility at 1 day ([1]; MTBE (methyl t-butyl ether), organic solvent or mixture, MTBE, 1 day) was under 1000 µg/mL. It also gave a solubility at 1 day ([1]; MeOAc (methyl acetate), organic solvent or mixture, MeOAc, 1 day) of under 2000 µg/mL, a solubility at 1 day ([1]; MeOH (methanol), organic solvent or mixture, MeOH, 1 day) of under 3000 µg/mL and a solubility at 1 day ([1]; NMP (N-methylpyrrolidone), organic solvent or mixture, NMP, 1 day) of over 50000 µg/mL. The “Approximate Solubility” value ([1]; NMP, 1 day) was over 50000 µg/mL, the solubility at 1 day ([1]; THF (tetrahydrofuran), organic solvent or mixture, THF, 1 day) was 8000 to 16000 µg/mL (≈ 17 to 34 mM) and the “Approximate Solubility” value ([1]; THF, 1 day) was under 10000 µg/mL. For the same molecule, the “Approximate Solubility” value ([1]; THF/water (1:1), 1 day) was under 16000 µg/mL, the solubility at 1 day ([1]; THF/water (1:1), aqueous with cosolvent or surfactant or cyclodextrin, THF/water (1:1), 1 day) was 8000 to 16000 µg/mL (≈ 17 to 34 mM) and the “Approximate Solubility” value ([1]; acetone, 1 day) was under 3000 µg/mL. It also gave a solubility at 1 day ([1]; acetone, organic solvent or mixture, 1 day) of over 2000 µg/mL, a solubility at 1 day ([1]; heptane, organic solvent or mixture, 1 day) of under 1000 µg/mL and a solubility at 1 day ([1]; n-BuOH (n-butanol), organic solvent or mixture, n-BuOH, 1 day) of under 1000 µg/mL. The solubility at 1 day ([1]; organic solvent or mixture, all other solvents tested (not DMSO, DMA, NMP, THF/water, THF, DCM, acetone, 1,4-dioxane, MEK)) was under 3000 µg/mL, the solubility at 1 day ([1]; toluene, organic solvent or mixture, 1 day) was under 1000 µg/mL and the solubility at 1 day ([1]; water, 1 day) was under 1000 µg/mL. For the same molecule, the Hygroscopicity ([2]; DVS, 0 to 90% RH) was “slightly hygroscopic”, the DVS water uptake [2] was “about 2.5 wt %” and the DVS water uptake ([2]; listed as A) was “DVS: ~2.5 wt % water”. The “Resulting Form(s)” value ([3]; 0-90-0% RH cycle in DVS, 25° C.) was “No form change”, the “Resulting Form(s)” value ([3]; compression, 2000 psi, RT, 1 min) was “still Form A” and the “Resulting Form(s)” value ([3]; heating in KF oven, 190° C., ~10 min) was “confirmed to be Form A”.
